Assay results as given in patent publication US11434199B2, “Alcohol derivatives as KV7 potassium channel openers” (H. Lundbeck A/S, priority 2018, dated 2022).
pEC50: −log10 of the molar value.

Target: T1, hKv7.2/hKv7.3 (Homo sapiens, UniProt O43525+O43526)
T1 construct: P2A remnant (self-cleaving peptide between Kv7.3 and Kv7.2) (C); expressed in transfected cells
Test: Thallium influx assay for potassium channel activation
Format: cell-based
Details: HEK-hKv7.2/hKv7.3 cells; FLIPR Potassium Assay kit; AUC readout normalized to a reference compound
Description: (§1) A synthesized cDNA fragment encoding human Kv7.3 and human Kv7.2 separated by a P2A sequence was inserted into the pcDNA5/FRT/TO vector using the BamHI and XhoI restriction sites. The construct was then transfected into HEK Flp-In 293 cells using Lipofectamine2000. The transfected cells were grown for 48 hours in DMEM containing 10% (v/v) FBS and 1% PenStrep and subsequently maintained under selection in DMEM containing 10% (v/v) FBS, 1% PenStrep and 200 ug/mL Hygromycin B at 37° C. in a humidified atmosphere of 5% CO2.
The thallium influx assay for potassium channel activation was performed analogously to a published procedure (C. D. Weaver, et al., J Biomol Screen 2004, 9, 671-677) using the FLIPR Potassium Assay kit (Molecular Devices). HEK-hKv7.2/hKv7.3 cells were plated onto 96-well, black-walled, clear-bottomed culture plates (Corning, Acton, Mass., USA) at a density of 80,000 cells/well (100 μl/well) if the cells were assayed the following day, or 40,000 cells/well (100 μl/well) if the cells were assayed two days after seeding.
On the assay day, the medium was removed after which 50 uL/well of test compound diluted to 2× final concentration in HBSS containing 20 mM HEPES, and 50 uL/well of 2× dye load buffer were added. The cells were then incubated for 60 min at room temperature in the dark. Chloride-free stimulation buffer containing Tl^+ and K^+ at 5× final concentration (5× concentration: 5 mM in both cases) and test compound at 1× final concentration, were prepared during the incubation. The cells were then assayed in a FDSS7000EX Functional Drug Screening System (Hamamatsu). Following 60 sec of baseline fluorescence signal reading at 0.1 Hz, and 10 sec at 1 Hz, 25 uL/well of stimulation buffer were added and the fluorescence continuously measured for 50 sec at 1 Hz followed, by 4 min at 0.1 Hz. Compound effect was quantified using AUC as readout and normalized to a reference compound, which was included on each plate.

Row | SMILES | pEC50
1 | C[C@H](NC(=O)CC(O)C(C)(C)C)c1cccc(C(F)(F)F)c1 (single isomer, unassigned) [Example 4b] | 5.92
2 | C[C@H](NC(=O)CC(O)C(C)(C)C)c1cccc(OC(F)F)c1 (single isomer, unassigned) [Example 3a] | 4.96
3 | CC(C)C(O)(CC(=O)N[C@@H](C)c1cccc(OCC(F)(F)F)c1)C(F)(F)F (single isomer, unassigned) [Example 7b] | 5.82
4 | C[C@H](NC(=O)CC(C)(O)C1(F)CC1)c1cccc(OC(F)(F)F)c1 (single isomer, unassigned) [Example 15b] | 4.96
5 | C[C@H](NC(=O)CC(O)C(C)(C)C)c1cccc(OCC(F)(F)F)c1 (single isomer, unassigned) [Example 2a] | 6.34
6 | C[C@H](NC(=O)CC(O)C1(C(F)F)CC1)c1cccc(OC(F)(F)F)c1 (single isomer, unassigned) [Example 14a] | 5.70
7 | C[C@H](NC(=O)CC(O)C1(C(F)(F)F)CC1)c1cccc(OC(F)(F)F)c1 (single isomer, unassigned) [Example 16a] | 5.52
8 | C[C@H](NC(=O)CC(C)(O)CC(F)(F)F)c1cccc(OC(F)(F)F)c1 (single isomer, unassigned) [Example 13b] | 5.54
9 | C[C@H](NC(=O)CC(C)(O)C(F)(F)F)c1cccc(OCC(F)(F)F)c1 (single isomer, unassigned) [Example 19b] | 5.47
10 | C[C@H](NC(=O)CC(O)C1CC(F)(F)C1)c1cccc(OC(F)(F)F)c1 (single isomer, unassigned) [Example 11b] | 5.35
11 | C[C@H](NC(=O)CC(O)C(C)(C)C)c1cccc(OCC(F)(F)F)c1 (single isomer, unassigned) [Example 2b] | 5.74
12 | C[C@H](NC(=O)CC(O)C1(C(F)(F)F)CC1)c1cccc(OC(F)(F)F)c1 (single isomer, unassigned) [Example 16b] | 5.00
13 | CC(C)C(O)CC(=O)N[C@@H](C)c1cccc(OCC(F)(F)F)c1 (single isomer, unassigned) [Example 12a] | 5.80
14 | C[C@H](NC(=O)C[C@@](C)(O)C1(F)CC1)c1cccc(OC(F)(F)F)c1 (single isomer, unassigned) [Example 15a] | 5.68
15 | CC(C)C(O)CC(=O)N[C@@H](C)c1cccc(OCC(F)(F)F)c1 (single isomer, unassigned) [Example 12b] | 5.23
16 | C[C@H](NC(=O)CC(C)(O)C(F)(F)C(F)F)c1cccc(OC(F)(F)F)c1 (single isomer, unassigned) [Example 10b] | 5.89
17 | C[C@H](NC(=O)C[C@@H](O)C1(C(F)F)CC1)c1cccc(OC(F)(F)F)c1 (single isomer, unassigned) [Example 14b] | 5.18
18 | CC[C@H](NC(=O)CC(O)C(C)(C)C)c1cccc(OC(F)(F)F)c1 (single isomer, unassigned) [Example 8b] | 5.52
19 | CC(C)C(O)(CC(=O)N[C@@H](C)c1cccc(OCC(F)(F)F)c1)C(F)(F)F (single isomer, unassigned) [Example 7a] | 6.66
20 | C[C@H](NC(=O)CC(C)(O)C(F)(F)F)c1cccc(OCC(F)(F)F)c1 (single isomer, unassigned) [Example 19a] | 5.77
21 | CC(C)C(O)CC(=O)N[C@@H](C)c1cccc(OC(F)(F)F)c1 (single isomer, unassigned) [Example 20b] | 4.85
22 | CC[C@H](NC(=O)CC(O)C(C)(C)C)c1cccc(OC(F)(F)F)c1 (single isomer, unassigned) [Example 8a] | 6.37
23 | C[C@H](NC(=O)CC(C)(O)C1CC1)c1cccc(OCC(F)(F)F)c1 (single isomer, unassigned) [Example 18a] | 5.89
24 | C[C@H](NC(=O)CC(O)C(C)(C)C)c1cccc(C(F)(F)F)c1 (single isomer, unassigned) [Example 4a] | 4.96
25 | CC(C)C(O)CC(=O)N[C@@H](C)c1cccc(OC(F)(F)F)c1 (single isomer, unassigned) [Example 20a] | 5.51
26 | C[C@H](NC(=O)CC(O)C(C)(C)C)c1cccc(OC(F)F)c1 (single isomer, unassigned) [Example 3b] | 5.82
27 | C[C@H](NC(=O)CC(C)(O)C1CC1)c1cccc(OCC(F)(F)F)c1 (single isomer, unassigned) [Example 18b] | 5.15

Target: T1, hKv7.2/hKv7.3
Test: Automated whole cell patch-clamp functional test of the HEK-hKv7.2/hKv7.3 cell line
Format: cell-based
Details: stable HEK-hKv7.2/hKv7.3 cell line
Description: as §1

Row | SMILES | effect on Kv7-current
28 | O=C1c2ccccc2C(Cc2ccncc2)(Cc2ccncc2)c2ccccc21 [XE991] | sensitive
29 | CCOC(=O)Nc1ccc(NCc2ccc(F)cc2)cc1N [Retigabine, N-(2-amino-4-(4-fluorobenzylamino)-phenyl) carbamic acid ethyl ester] | potentiated
